From patent publication EP4745118A1, “HYDROXAMIC ACID COMPOUND OR PHARMACEUTICALLY ACCEPTABLE SALT THEREOF, AND USE THEREOF AND PREPARATION METHOD THEREFOR” (priority 2023, dated 2025)

Experiments:
ICR strain mice = assay: Acute toxicity in mice, single tail vein injection; format: in vivo; conditions: one week
Description: Healthy ICR strain mice weighing 20-21 g were taken for the experiment, randomly divided into groups of 3 mice per group, regardless of gender. Each compound was administered via a single tail vein injection at a volume of 20 mL/kg. Animal responses were observed immediately postadministration and monitored for one week. The number of animal deaths was recorded and mortality rates calculated.

[1] = target: T1, recombinant Escherichia coli LpxC enzyme (rLpxC) (Escherichia coli, UniProt P0A725); assay: Inhibition of recombinant Escherichia coli LpxC enzyme activity (LC-MS); format: biochemical; conditions: 37°C, 30 minutes reaction, substrate UDP-3-O (R-hydroxytetradecanoyl)-N-acetylglucosamine
T1 sequence (P0A725 1-305): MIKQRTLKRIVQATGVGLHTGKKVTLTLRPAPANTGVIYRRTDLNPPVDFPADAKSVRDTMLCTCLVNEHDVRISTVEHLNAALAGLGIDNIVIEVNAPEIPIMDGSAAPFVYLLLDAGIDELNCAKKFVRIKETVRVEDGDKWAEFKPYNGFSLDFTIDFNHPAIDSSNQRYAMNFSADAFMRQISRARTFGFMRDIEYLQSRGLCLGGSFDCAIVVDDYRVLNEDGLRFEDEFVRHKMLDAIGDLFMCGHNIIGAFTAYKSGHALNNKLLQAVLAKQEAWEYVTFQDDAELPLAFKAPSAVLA
Description: Preparation of recombinant Escherichia coli LpxC enzyme (rLpxC). 2 µL of recombinant Escherichia coli LpxC enzyme (6.29 mg/mL) was added to 18 µL of distilled water. After thorough mixing, 2 µL of this mixture was added to 1042.4 µL of distilled water and mixed well to prepare a 36 nM working solution.
The substrate was UDP-3-O (R-hydroxytetradecanoyl)-N-acetylglucosamine, with UDP-α-D-N-Acetylglucosamine Disodium Salt as the internal standard. Mobile phase A: 90% water-10% acetonitrile containing 10 mM ammonium acetate; B: acetonitrile.
Reaction system: Corresponding solutions were prepared as per the table below, and placed in a 37°C metal bath, and mixed at 300 rpm for 10 minutes. After mixing for 10 minutes, 10 µl of 250 µM substrate was added to each group to initiate the reaction, and placed in a 37°C metal bath and reacted at 300 rpm for 30 minutes.
Termination solution: 1.1 µL of 1 mM internal standard was added to 2 mL of acetonitrile. 1.5 mL of EP tubes were taken and 100 µL of termination solution was added to each EP tube. The concentration of the internal standard in the final 350 µL system is 100 ng/mL.
Detection: 10 µL of reaction solution was added to 100 µL of the termination solution in an EP tube, mixed thoroughly, and then 240 µL of distilled water was added and mixed well, centrifuged at 14,000 rpm for 5 minutes. 70 µL of supernatant was transferred to an LC-MS vial and API 6500 Qtrap LC-MS system was used to measure substrates and metabolites. The median inhibition concentrations (IC50) of the four optical isomers and ACHN-975 against rLpxC enzyme were calculated. Table 4 Inhibitory activity of 4 optical isomers and control drug against recombinant Escherichia coli LpxC enzyme

Row | SMILES | Mortality rate (ICR strain mice; dose 100 mg/kg) | Number of deaths (ICR strain mice; dose 100 mg/kg) | Mortality rate (ICR strain mice; dose 150 mg/kg) | Number of deaths (ICR strain mice; dose 150 mg/kg) | IC50 [1] | Mortality rate (ICR strain mice; dose 50 mg/kg) | Number of deaths (ICR strain mice; dose 50 mg/kg) | Mortality rate (ICR strain mice; dose 200 mg/kg) | Number of deaths (ICR strain mice; dose 200 mg/kg)
1 | COCC1CC1C#CC#Cc1ccc(C(=O)NC(C(=O)NO)C(C)(C)N)cc1 (mixture of isomers) [Ia/Ib racemate] | 0% | 0 individuals | 100% | 3 individuals | 1.03 nM | – | – | – | –
2 | CC(C)(N)[C@H](NC(=O)c1ccc(C#CC#C[C@@H]2C[C@H]2CO)cc1)C(=O)NO [ACHN-975] | 67% | 2 individuals | 100% | 3 individuals | 1.07 nM | 0% | 0 individuals | – | –
3 | CO[C@H]1CCC[C@@H]1C#CC#Cc1ccc(C(=O)N[C@H](C(=O)NO)C(C)(C)N)cc1 [A] | – | – | 0% | 0 individuals | 4.68 nM | – | – | 100% | 3 individuals
4 | COC[C@@H]1C[C@H]1C#CC#Cc1ccc(C(=O)N[C@H](C(=O)NO)C(C)(C)N)cc1 [Ia, N-(S)-3-amino-1-hydroxyamino-3-methyl-1-oxobutan-2-yl-4-[[(1R,2R)-2-(methoxymethylene)cyclopropyl]but-1,3-diynyl]benzamide] | – | – | 0% | 0 individuals | 1.07 nM | – | – | 100% | 3 individuals
5 | COC[C@H]1C[C@@H]1C#CC#Cc1ccc(C(=O)N[C@H](C(=O)NO)C(C)(C)N)cc1 [Ib, N-(S)-3-amino-1-hydroxyamino-3-methyl-1-oxobutan-2-yl-4-[[(1S,2S)-2-(methoxymethylene)cyclopropyl]but-1,3-diynyl]benzamide] | – | – | 0% | 0 individuals | 0.857 nM | – | – | 100% | 3 individuals
6 | COC[C@H]1C[C@H]1C#CC#Cc1ccc(C(=O)N[C@H](C(=O)NO)C(C)(C)N)cc1 [Ic, N-(S)-3-amino-1-hydroxyamino-3-methyl-1-oxobutan-2-yl-4-[[(1R,2S)-2-(methoxymethylene)cyclopropyl]but-1,3-diynyl]benzamide] | 0% | 0 individuals | 33% | 1 individuals | 0.905 nM | – | – | 100% | 3 individuals
7 | COC[C@@H]1C[C@@H]1C#CC#Cc1ccc(C(=O)N[C@H](C(=O)NO)C(C)(C)N)cc1 [Id, N-(S)-3-amino-1-hydroxyamino-3-methyl-1-oxobutan-2-yl-4-[[(1S,2R)-2-(methoxymethylene)cyclopropyl]but-1,3-diynyl]benzamide] | 0% | 0 individuals | 67% | 2 individuals | 0.892 nM | – | – | 100% | 3 individuals
